{
  "source": "patent US20050037450A1",
  "about": "“Novel targets for lithium therapy” (Duke University, priority 2002, published 2005)",
  "key": {"patients": {"tested_on": "patients", "conditions": "cited from earlier work"}, "[1]": {"biological_target": "T1, 1ptase D54A (aspartate to alanine) (Bos taurus, UniProt P21327, D54A)", "T1 sequence (P21327 1-400 D54A)": "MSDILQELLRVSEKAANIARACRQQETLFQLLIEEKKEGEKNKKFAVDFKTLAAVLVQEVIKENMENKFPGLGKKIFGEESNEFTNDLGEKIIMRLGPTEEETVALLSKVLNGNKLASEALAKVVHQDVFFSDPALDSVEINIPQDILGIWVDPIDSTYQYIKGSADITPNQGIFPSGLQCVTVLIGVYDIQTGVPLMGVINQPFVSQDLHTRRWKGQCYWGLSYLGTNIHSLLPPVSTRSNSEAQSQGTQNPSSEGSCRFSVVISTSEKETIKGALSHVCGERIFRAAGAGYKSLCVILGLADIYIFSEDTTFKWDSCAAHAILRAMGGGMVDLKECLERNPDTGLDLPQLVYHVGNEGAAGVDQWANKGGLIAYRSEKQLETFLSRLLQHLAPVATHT", "test": "Lithium inhibition of 1ptase D54A mutant", "type": "biochemical, bovine", "description": "Low concentrations of lithium and high concentrations of normally catalytic magnesium inhibit Impase and 1ptase uncompetitively with respect to substrate. The inhibitory effects of lithium and magnesium are mutually exclusive in Impase, implying that the inhibitory metals bind at the same or overlapping sites (Ganzhorn, 1990). Structural studies of 1ptase offered additional evidence. […] This was interpreted to mean that electron-poor lithium was bound at the second metal binding site, excluding the binding of electron-rich gadolinium, leading to a dearth of electron density at this site. This conclusion was supported by mutagenic data in which a residue that anchors the second metal binding site, Asp-54 (homologous to Impase Asp-47 (FIGS. 1 and 2)), was mutated to alanine.\nFIG. 24 summarizes the results of mutagenic and crystallography experiments representing the lithium binding site in 1ptase. […] When 1ptase was crystallized in the presence of metal and lithium, however, the density at metal site 2 disappeared. This is explained by the fact that lithium, having only 2 electrons, is invisible (right panel). Therefore, loss of occupancy at metal site 2 is a result of invisible lithium binding there, excluding the binding of more electron rich metals. […]"}, "[2]": {"tested_on": "intracellular PAP in wild type yeast", "test": "Intracellular PAP concentration by GST-PST binding assay, wild type yeast", "type": "cell-based, S. cerevisiae", "experimental": "Yeast were grown in CM/ura^− containing 2% galactose to mid-log phase. The cultures were washed extensively and resuspended in the CM/ura^−/met^− media with the noted inclusions. PAP was measured using the ligand binding assay described in Experimental Procedures. Intracellular PAP concentrations were normalized to the amount of soluble protein extracted from the cultures.\nFor the assay of intracellular PAP concentrations, appropriate yeast strains were grown in CM/ura^− to mid-log phase (OD600=1.0). The cells were centrifuged and washed extensively in sterile water. The cells were resuspended in CM/ura^−/met^− containing methionine (20 μg/ml), lithium, or chlorate as appropriate. The cultures were incubated with shaking at 30° C. At various time points, 2 ml of culture was removed and centrifuged. The cells were washed with 1 ml of water. 250 μl was centrifuged and resuspended in 200 μl K-lysis buffer. 200 μl of glass beads were added, and the cells were disrupted by vigorous bead beating. The amount of soluble protein in this extract was determined using a Bradford dye-binding assay (BioRad, Hercules, Calif., United States of America) with bovine serum albumin as a standard. The remaining 750 μl of washed cells was spun down and resuspended in 250 μl of 2 N HClO4. This was incubated at 4° C. for 20 min, when 250 μl of 1.8 N KOH, 0.4 N KHCO3 were added to neutralize and precipitate the HClO4. The extract was centrifuged at 4° C. to remove the debris, and the supernatant was lyophilized using a rotary evaporator. The dried extracts were frozen at −80° C. for no more than one week prior to use. Extracts were reconstituted in 100 μL of 200 mM HEPES, pH 7.5 and again centrifuged to remove debris. 5′ [^32P] 3′, 5′ PAP was created as described (Spiegelberg, 1999). The GST-PST assay was performed by mixing 10 μL of standard PAP, treated as above, or 10 μL of sample diluted approximately 1:1000 in K-lysis buffer, with 10 μL of radiolabeled PAP (approximately 10,000 CPM). Eighty microliters of a reaction mix containing 100 mM HEPES, pH 7.0, 5 mM DTT, 0.2 mg/ml BSA, and 1 μg of GST-PST were added to start the binding reaction. The reactions were allowed to equilibrate for at least one hour at room temperature. Following incubation, 20 μl of a 50:50 slurry of glutathione sepharose in K-lysis buffer was added. The tubes were incubated with gentle mixing for 10 min at room temperature. The protein with bound PAP was pulled down by centrifugation for 2 min at room temperature. 80 μl of the supernatant, containing free PAP, was removed to a scintillation vial and 200 μl of K-lysis buffer was added to wash the resin. The tubes were centrifuged again and the 200 μl wash was transferred to the original scintillation vials. Radioactivity was determined by adding 5 ml of […] ECONO2™ scintillation fluid (Fisher Scientific, Hampton, N.H., United States of America) and counted in a liquid scintillation counter. The counts were converted to percent isotope bound, and a standard curve was prepared by plotting percent bound vs. the logarithm of the PAP concentration. […]\nThe GST-PST binding assay was used to determine relative intracellular PAP concentrations in yeast strains grown under various conditions. The PAP concentration determined in the binding assay was normalized to the total soluble protein in parallel extracts, and background was eliminated by reporting only the signal that was sensitive to in vitro degradation by purified recombinant Hal2p. […]"}},
  "data": [
    {"smiles": "[Li]", "note": "[lithium]", "values": [
      {"measurement": "Occurrence of acquired nephrogenic diabetes insipidus (NDI)", "setting": "patients; patients taking the drug", "result": "20-50%"},
      {"measurement": "Patients reporting clinically significant polyuria", "setting": "patients; patients undergoing lithium therapy", "result": "Up to 20%"},
      {"measurement": "Ki", "setting": "[1]", "result": 100, "unit": "mM"},
      {"measurement": "Fold increase of PAP concentration", "setting": "[2]", "result": "at least 85.8 fold"},
      {"measurement": "Intracellular PAP concentration", "setting": "[2]; wild type, 100 mM LiCl, 8 hr, absence of methionine, normalized to soluble protein", "result": 42.9, "unit": "nmol/mg"}
    ]}
  ]
}
